Data published in patent US10597388B2, “Pyridazinone herbicides” (FMC CORPORATION, priority 2014, dated 2020).

Columns and labels:
Experiment in all cases: Test F mixtures with commercial herbicides, Post- or Pre-emergence
Format in all cases: in vivo
[1] = system: AMARE, redroot pigweed (Amaranthus retroflexus)
Method: (§1) This test evaluated the effect of mixtures of Compound 1 or Compound 2 with various commercial herbicides on multiple plant species. Seeds of multiple plant species selected were planted into Sandy Loam soil and treated either Post-emergence or Pre-emergence with test chemicals formulated in a non-phytotoxic solvent mixture. Plants were grown in a greenhouse using supplemental lighting to maintain a photoperiod of approximately 16 h; daytime and nighttime temperatures were approximately 24-30 and 19-21° C., respectively. Balanced fertilizer was applied through the watering system. Treated plants and controls were maintained in a greenhouse for 20 d, after which time all species were compared to controls and visually evaluated. Plant response ratings summarized in Tables F1 through F4 and are based on a scale of 0 to 100 where 0 is no effect and 100 is complete control. A dash (-) response means no test result. Application rates (i.e. “Rate”) are expressed in grams of active ingredient per hectare (g a.i./ha). In the following tables KCHSC is kochia (Kochia scoparia), LOLMU in Italian Ryegrass (Lolium multiflorum), AMBEL is common ragweed (Ambrosia elatior), ECHCG is barnyardgrass (Echinochloa crus-galli), SETVI is giant foxtail (Setaria faberii), AMARE is redroot pigweed (Amaranthus retroflexus), ALOMY is blackgrass (Alopecurus myosuroides) and GALAP is galium (Galium aparine). “Obsd.” is observed effect. “Exp.” is expected effect calculated from Colby's Equation.
(§2) Colby's Equation was used to determine the herbicidal effects expected from the mixtures. Colby's Equation (Colby, S. R. “Calculating Synergistic and Antagonistic Responses of Herbicide Combinations,” Weeds, 15(1), pp 20-22 (1967)) calculates the expected additive effect of herbicidal mixtures, and for two active ingredients is of the form: Pa+b=Pa+Pb−(PaPb/100)
(§3) wherein Pa+b is the percentage effect of the mixture expected from additive contribution of the individual components:
(§4) Pa is the observed percentage effect of the first active ingredient at the same use rate as in the mixture, and
(§5) Pb is the observed percentage effect of the second active ingredient at the same use rate as in the mixture.

[2] = system: LOLMU, Italian Ryegrass (Lolium multiflorum)
Method: as §1, §2, §3, §4, §5

[3] = system: SETVI, giant foxtail (Setaria faberii)
Method: as §1, §2, §3, §4, §5

[4] = system: GALAP, galium (Galium aparine); conditions: Post-emergence, scale 0-100
Method: as §1, §2, §3, §4, §5

[5] = system: KCHSC, kochia (Kochia scoparia)
Method: as §1, §2, §3, §4, §5

[6] = system: AMBEL, common ragweed (Ambrosia elatior)
Method: as §1, §2, §3, §4, §5

[7] = system: ALOMY, blackgrass (Alopecurus myosuroides); conditions: Post-emergence, scale 0-100
Method: as §1, §2, §3, §4, §5

[8] = system: ECHCG, barnyardgrass (Echinochloa crus-galli)
Method: as §1, §2, §3, §4, §5

[9] = Pre-emergence, Rate 62 g a.i./ha, scale 0-100
[10] = Table F3, Post-emergence, Rate 62 g a.i./ha, scale 0-100
[11] = Post-emergence, Rate 4 g a.i./ha, scale 0-100
[12] = Post-emergence, Rate 16 g a.i./ha, scale 0-100
[13] = Pre-emergence, Rate 4 g a.i./ha, applied alone, 20 d, scale 0 to 100
[14] = Pre-emergence, Rate 16 g a.i./ha, applied alone, 20 d, scale 0 to 100

CCNc1nc(Cl)nc(NC(C)C)n1 [atrazine]
AMARE Obsd. [1, 9]: 85 | AMARE Obsd. [1, 10]: 75 | LOLMU Obsd. [2, 9]: 100 | LOLMU Obsd. [2, 10]: 15 | SETVI Obsd. [3, 9]: 5 | SETVI Obsd. [3, 10]: 5 | GALAP Obsd. ([4]; Table F3, Rate 62 g a.i./ha): 50 | KCHSC Obsd. [5, 9]: 100 | KCHSC Obsd. [5, 10]: 100 | AMBEL Obsd. [6, 9]: 10 | AMBEL Obsd. [6, 10]: 10 | ALOMY Obsd. ([7]; Table F3, Rate 62 g a.i./ha): 60 | ECHCG Obsd. [8, 9]: 0 | ECHCG Obsd. [8, 10]: 20

CS(=O)(=O)c1ccc(C(=O)C2C(=O)CCCC2=O)c([N+](=O)[O-])c1 [mesotrione]
AMARE Obsd. [1, 11]: 0.0 | AMARE Obsd. [1, 12]: 30.0 | AMARE Obsd. [1, 13]: 0 | AMARE Obsd. [1, 14]: 20 | LOLMU Obsd. [2, 11]: 0.0 | LOLMU Obsd. [2, 12]: 0.0 | LOLMU Obsd. [2, 13]: 0 | LOLMU Obsd. [2, 14]: 0 | SETVI Obsd. [3, 11]: 0.0 | SETVI Obsd. [3, 12]: 0.0 | SETVI Obsd. [3, 13]: 0 | SETVI Obsd. [3, 14]: 0 | GALAP Obsd. ([4]; Rate 4 g a.i./ha): 0.0 | GALAP Obsd. ([4]; Rate 16 g a.i./ha): 35.0 | KCHSC Obsd. [5, 11]: 0.0 | KCHSC Obsd. [5, 12]: 90.0 | KCHSC Obsd. [5, 13]: 0 | KCHSC Obsd. [5, 14]: 50 | AMBEL Obsd. [6, 11]: 0.0 | AMBEL Obsd. [6, 12]: 75.0 | AMBEL Obsd. [6, 13]: 0 | AMBEL Obsd. [6, 14]: 30 | ALOMY Obsd. ([7]; Rate 4 g a.i./ha): 0.0 | ALOMY Obsd. ([7]; Rate 16 g a.i./ha): 0.0 | ECHCG Obsd. [8, 11]: 0.0 | ECHCG Obsd. [8, 12]: 20.0 | ECHCG Obsd. [8, 13]: 0 | ECHCG Obsd. [8, 14]: 0
